“And” between values parts separate entries of the source, which are not always exact repeats. Equal entries are not always repeated.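 A five-concentration, 48-hour dose response in 96-well plates underlies each endpoint, interpolated linearly between surrounding concentrations. GI50 is the concentration that inhibits growth by half. At the TGI there is no net growth.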
What was measured:
Test in all cases: NCI tumour cell line growth inhibition, 48 h
[1] = test system: M19-MEL melanoma
[2] = test system: DMS 273 small cell lung
[3] = test system: KM20L2 colon
[4] = test system: RXF-631 renal
[5] = test system: HS 578T breast
[6] = test system: BT-549 breast
[7] = test system: MDA-N
[8] = test system: HOP-18 NSCLC
[9] = test system: SN12K1 renal
[10] = test system: T-47D breast
[11] = test system: P388 leukemia

SMILES | TGI [1] | TGI [2] | TGI [3] | TGI [4] [µM] | TGI [8] | also measured
CC(/C=C/C(=O)c1sc(-n2nc(-c3ccccc3)cc2-c2ccccc2)nc1C)=C\c1ccccc1 | > 100 µM | > 100 µM | > 100 µM | > 100 |  | GI50 [2]: > 100 µM
CCN(CC)CC.CCOc1ccc(NC(=O)N=C=[N-])cc1.[CH-]1CCCCC1.[CH-]1CCCCC1.[CH-]1CCCCC1.[Cl-].[Sn+4] | 0.0513 µM | 0.0482 µM | 0.0505 µM | 0.0648 | 0.0376 µM | GI50 [5]: 0.0565 µM; TGI [5]: 0.47 µM; GI50 [6]: 0.149 µM; TGI [6]: 0.292 µM; GI50 [1]: 0.0208 µM; GI50 [2]: 0.0185 µM; GI50 [7]: 0.0205 µM; TGI [7]: 0.0471 µM; GI50 [3]: 0.0229 µM; GI50 [4]: 0.0202 µM; GI50 [8]: 0.0135 µM
CC1=C(C(=O)Nc2ccccc2)C(c2ccc([N+](=O)[O-])cc2)C(C(=O)Nc2ccccc2)=C(C)N1 | 32.1 µM | 72.4 µM | 35.3 µM | > 100 |  | 
c1ccc(N=c2snc3scc(-c4ccccc4)n23)cc1 | > 100 µM | > 100 µM |  | > 100 | > 100 µM | 
C=CCCCn1ccc2ccccc21 | > 100 µM |  | > 100 µM | > 100 | > 100 µM | 
C[C@H](N)C(=O)N[C@@H]1[C@H]2C(=C(O)C[C@@H](O)[C@@H]2O)C(=O)O[C@]1(C)C(Cl)Cl | 1.22 µM and 2.62 µM | 1.57 µM and 1.44 µM | 2.73 µM and 3.23 µM | 1.93 | 4.39 µM and 2.76 µM | TGI [9]: 1.58 µM; TGI [5]: 0.634 µM; GI50 [6]: 0.315 µM; TGI [6]: 2.57 µM and 1.53 µM; GI50 [2]: 0.279 µM; GI50 [7]: 0.438 µM; GI50 [10]: 0.8 µM; TGI [10]: 7.69 µM and 4.18 µM; GI50 [8]: 0.375 µM; TGI [11]: 0.453 µM
CC1=C(C(=O)Nc2ccccc2C)C(c2ccc(C3C(C(=O)Nc4ccccc4C)=C(C)NC(C)=C3C(=O)Nc3ccccc3C)cc2)C(C(=O)Nc2ccccc2C)=C(C)N1 | 12.3 µM | 11.4 µM | 12.9 µM | 28.4 |  | TGI [5]: 55.3 µM; TGI [6]: 11.5 µM; TGI [7]: 19.9 µM; TGI [10]: 20.5 µM
CN(C)c1ncnc2c1Cc1ccccc1C(=O)N2C | > 100 µM | > 100 µM | > 100 µM | > 100 | > 100 µM | 
CC1CN(c2ccc(Cl)cc2)CC(C)(C)OC(=O)O1 (configuration not stated) | > 100 µM | > 100 µM | > 100 µM | > 100 |  | 
Cc1ccc2[nH]c3c(C)c4c(c(C)c3c2c1)CN(C)C=C4 |  | 3.09 µM | 11.8 µM | 8.75 | 26.9 µM | 
CC(=O)NC(CCCCN(Cc1ccccc1)C(=O)NCCCl)C(=O)NCc1ccccc1 (configuration not stated) |  | > 100 µM | > 100 µM | > 100 | > 100 µM | 
COc1ccc2c(c1O)C(=O)C(CCC(=O)O)CC2 (configuration not stated) | > 100 µM | > 100 µM | > 100 µM | > 100 | > 100 µM | 
CC(C)N(C(=O)C1(C)CC1)C(C)C | > 100 µM | > 100 µM | > 100 µM | > 100 | > 100 µM | 
O=C1Nc2cc(Cl)ccc2N=CC1NC(=O)C(c1ccccc1)c1ccccc1Cl (configuration not stated) | > 100 µM | > 100 µM | > 100 µM | > 100 | > 100 µM | 
CCCCCCCCCCCCCCCCOCC(CN(C)CCN(C)C)OCCCCCCCCCCCCCCCC (configuration not stated) | > 100 µM | > 100 µM | > 100 µM | > 100 | > 100 µM | 
Nc1nc(Cl)cc(NCCCCCNc2cc(Cl)nc(N)n2)n1 |  | > 100 µM | > 100 µM | > 100 | > 100 µM | 

From PubChem BioAssay (NCI)
